Test results from patent US8574563B2 (Bristol-Myers Squibb Company, priority 2006, dated 2013).

What follows are molecules tested on HCV 1b-377-neo replicon cells (assay: HCV replicon assay, HCV 1b-377-neo replicon cells (1b FRET)). Conditions: HCV 1b-377-neo replicon cells; HCV 1b genotype; read-out: EC50 range against HCV 1b (Table 2, Range).
Format: cell-based, Hepatitis C virus genotype 1b
Outline: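 Compounds were tested in genotype 1b subgenomic replicon cells carrying a neomycin marker, alongside a matched replicon line with an NS5A Y2065H substitution that confers resistance to a reference NS5A inhibitor.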

SMILES	EC50 [nM]
C[C@@H](O)C(=O)N1CCC[C@H]1c1ncc(-c2ccc(-c3ccc(-c4cnc([C@@H]5CCCN5C(=O)[C@@H](C)O)[nH]4)cc3)cc2)[nH]1 [Example 15, (2R,2′R)-1,1′-(4,4′-biphesnyldiylbis(1H-imidazole-5,2-diyl(2S)-2,1-pyrrolidinediyl))bis(1-oxo-2-propanol)]	1 to 99
CN(C)[C@@H](C(=O)N1CCC[C@H]1c1ncc(-c2ccc(-c3ccc(-c4cnc([C@@H]5CCCN5C(=O)C5CCN(C(=O)OC(C)(C)C)CC5)[nH]4)cc3)cc2)[nH]1)c1ccccc1 [Example 94-34, ′tert-butyl 4-(((2S)-2-(5-(4′-(2-((2S)-1-((2R)-2-(dimethylamino)-2-phenylacetyl)-2-pyrrolidinyl)-1H-imidazol-5-yl)-4-biphenylyl)-1H-imidazol-2-yl)-1-pyrrolidinyl)carbonyl)-1-piperidinecarboxylate]	1 to 99

Same assay, conditions: Hepatitis C virus, HCV 1b-377-neo replicon cells; HCV 1b genotype; read-out: EC50 range against HCV 1b (Table 2, Range)

SMILES	EC50 [nM]
CNC(=O)c1nc([C@@H]2CCCN2C(=O)[C@@H](c2ccccc2)N(C)C)[nH]c1-c1ccc(-c2ccc(-c3cnc([C@@H]4CCCN4C(=O)[C@@H](c4ccccc4)N(C)C)[nH]3)cc2)cc1 [Example J26]	0.001 to 0.999
COC(=O)N[C@@H](C(=O)N1CCC[C@H]1c1ncc(-c2ccc(-c3ccc(-c4cnc([C@@H]5CCCN5C(=O)C5CCOC5)[nH]4)cc3)cc2)[nH]1)c1ccccc1 (stereo partly drawn) [Example 74, methyl ((1R)-2-oxo-1-phenyl-2-((2S)-2-(5-(4′-(2-((2S)-1-(tetrahydro-3-furanylcarbonyl)-2-pyrrolidinyl)-1H-imidazol-5-yl)-4-biphenylyl)-1H-imidazol-2-yl)-1-pyrrolidinyl)ethyl)carbamate]	0.001 to 0.999
COC(=O)N[C@H]1CC[C@@H](C(=O)N2CCC[C@H]2c2ncc(-c3ccc(-c4ccc(-c5cnc([C@@H]6CCCN6C(=O)[C@@H](NC(=O)OC)C(C)C)[nH]5)cc4)cc3)[nH]2)C1 [cj-61, methyl ((1S)-1-(((2S)-2-(5-(4′-(2-((2S)-1-(((1R,3S)-3-((methoxycarbonyl)amino)cyclopentyl)carbonyl)-2-pyrrolidinyl)-1H-imidazol-5-yl)-4-biphenylyl)-1H-imidazol-2-yl)-1-pyrrolidinyl)carbonyl)-2-methylpropyl)carbamate]	0.001 to 0.999
COC(=O)N[C@@H](C(=O)N1CCC[C@H]1c1nc(-c2ccc(-c3ccc(-c4cnc([C@@H]5CCCN5C(=O)C(c5cccnc5)N(C)C)[nH]4)cc3)cc2)c[nH]1)c1ccccc1 (stereo partly drawn) [Example 84-62, methyl ((1R)-2-((2S)-2-(4-(4′-(2-((2S)-1-((dimethylamino)(3-pyridinyl)acetyl)-2-pyrrolidinyl)-1H-imidazol-5-yl)-4-biphenylyl)-1H-imidazol-2-yl)-1-pyrrolidinyl)-2-oxo-1-phenylethyl)carbamate]	0.001 to 0.999
COC(=O)N[C@H](C(=O)N1CC(F)(F)C[C@H]1c1ncc(-c2ccc(-c3ccc(-c4cnc([C@@H]5CC(F)(F)CN5C(=O)[C@@H](NC(=O)OC)[C@@H](C)OC)[nH]4)cc3)cc2)[nH]1)[C@@H](C)OC [OL-10, methyl ((1S,2R)-1-(((2S)-2-(4-(4′-(2-((2S)-4,4-difluoro-1-(N-(methoxycarbonyl)-O-methyl-L-threonyl)-2-pyrrolidinyl)-1H-imidazol-4-yl)-4-biphenylyl)-1H-imidazol-2-yl)-4,4-difluoro-1-pyrrolidinyl)carbonyl)-2-methoxypropyl)carbamate]	0.001 to 0.999
CCN(CC)[C@@H](C(=O)N1CCC[C@H]1c1ncc(-c2ccc(-c3ccc(-c4cnc([C@@H]5CCCN5C(=O)[C@@H](c5ccccc5)N5CCOCC5)[nH]4)cc3)cc2)[nH]1)c1ccccc1 [Example M48, (1R)-N,N-diethyl-2-((2S)-2-(5-(4′-(2-((2S)-1-((2R)-2-(4-morpholinyl)-2-phenylacetyl)-2-pyrrolidinyl)-1H-imidazol-5-yl)-4-biphenylyl)-1H-imidazol-2-yl)-1-pyrrolidinyl)-2-oxo-1-phenylethanamine]	1 to 99
CC(C)[C@H](O)C(=O)N1[C@@H](C)CC[C@H]1c1nc(-c2ccc(-c3ccc(-c4c[nH]c([C@@H]5CC[C@H](C)N5C(=O)[C@@H](O)C(C)C)n4)cc3)cc2)c[nH]1 [Example M161, (2S,2′S)-1,1′-(4,4′-biphenyldiylbis(1H-imidazole-4,2-diyl((2S,5S)-5-methyl-2,1-pyrrolidinediyl)))bis(3-methyl-1-oxo-2-butanol)]	1 to 99
CCN(CC)[C@@H](C(=O)N1CCC[C@H]1c1ncc(-c2ccc(-c3ccc(-c4cnc([C@@H]5CCCN5C(=O)CNC(=O)OC)[nH]4)cc3)cc2)[nH]1)c1ccccc1 [Example M50, methyl (2-((2S)-2-(5-(4′-(2-((2S)-1-((2R)-2-(diethylamino)-2-phenylacetyl)-2-pyrrolidinyl)-1H-imidazol-5-yl)-4-biphenylyl)-1H-imidazol-2-yl)-1-pyrrolidinyl)-2-oxoethyl)carbamate]	1 to 99
CCN[C@@H](C(=O)N1CCC[C@H]1c1nc(-c2ccc(-c3ccc(-c4cnc([C@@H]5CCCN5C(=O)[C@H](NCC)c5ccccc5)[nH]4)cc3)cc2)c[nH]1)c1ccccc1 [Example F14, (1R)-N-ethyl-2-((2S)-2-(4-(4′-(2-((2S)-1-((2R)-2-(ethylamino)-2-phenylacetyl)-2-pyrrolidinyl)-1H-imidazol-5-yl)-4-biphenylyl)-1H-imidazol-2-yl)-1-pyrrolidinyl)-2-oxo-1-phenylethanamine]	0.001 to 0.999
COC(=O)N[C@@H](C(=O)N1CCC[C@H]1c1ncc(-c2ccc(-c3ccc(-c4cnc([C@@H]5CCCN5C(=O)Cc5ccncc5)[nH]4)cc3)cc2)[nH]1)c1ccccc1 [Example 48, methyl ((1R)-2-oxo-1-phenyl-2-((2S)-2-(5-(4′-(2-((2S)-1-(4-pyridinylacetyl)-2-pyrrolidinyl)-1H-imidazol-5-yl)-4-biphenylyl)-1H-imidazol-2-yl)-1-pyrrolidinyl)ethyl)carbamate]	0.001 to 0.999
C[C@H]1CC[C@@H](c2nc(-c3ccc(-c4ccc(-c5c[nH]c([C@@H]6CC[C@H](C)N6C(=O)Cc6ccccc6)n5)cc4)cc3)c[nH]2)N1C(=O)Cc1ccccc1 [Example M159, 4,4′-(4,4′-biphenyldiyl)bis(2-((2S,5S)-5-methyl-1-(phenylacetyl)-2-pyrrolidinyl)-1H-imidazole)]	0.001 to 0.999
COC(=O)N[C@@H](C(=O)N1CCC[C@H]1c1ncc(-c2ccc(-c3ccc(-c4cnc([C@@H]5CCCN5C(=O)Cc5ccc(Cl)cc5)[nH]4)cc3)cc2)[nH]1)c1ccccc1 [Example 84-68, methyl ((1R)-2-((2S)-2-(5-(4′-(2-((2S)-1-((4-chlorophenyl)acetyl)-2-pyrrolidinyl)-1H-imidazol-5-yl)-4-biphenylyl)-1H-imidazol-2-yl)-1-pyrrolidinyl)-2-oxo-1-phenylethyl)carbamate]	1 to 99
CC(C)C[C@H](O)C(=O)N1CCC[C@H]1c1ncc(-c2ccc(-c3ccc(-c4cnc([C@@H]5CCCN5C(=O)[C@@H](O)CC(C)C)[nH]4)cc3)cc2)[nH]1 [LS3, (2S,2′S)-1,1′-(4,4′-biphenyldiylbis(1H-imidazole-5,2-diyl(2S)-2,1-pyrrolidinediyl))bis(4-methyl-1-oxo-2-pentanol)]	1 to 99
CN(C)[C@@H](C(=O)N1CCC[C@H]1c1ncc(-c2ccc(-c3ccc(-c4cnc([C@@H]5CCCN5C(=O)Cc5cccnc5)[nH]4)cc3)cc2)[nH]1)c1ccccc1 [Example 85, (1R)-N,N-dimethyl-2-oxo-1-phenyl-2((2S)-2-(5-(4′-(2-((2S)-1-(3-pyridinylacetyl)-2-pyrrolidinyl)-1H-imidazol-5-yl)-4-biphenylyl)-1H-imidazol-2-yl)-1-pyrrolidinyl)ethanamine]	0.001 to 0.999
